According to patent publication US6642392B1 (priority 1997, dated 2003):
Read-outs that look alike come from different tables or passages of the source.

Tests used:
Type in all cases: in vivo
Pyricularia oryzae = conditions: for Test C disease control rating (100 = 100% disease control, 0 = no disease control): rating relative to controls; for Test C disease control rating: rice blast
[1] = system: Eiysiphe graminis f. sp. tritici; test: Test A: wheat powdery mildew, preventive spray on wheat seedlings; conditions: for Test A disease control rating (100 = 100% disease control, 0 = no disease control): rating relative to controls; for Test A disease control rating: wheat powdery mildew
Summary of the method: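 Compounds (3% acetone, 250 ppm Trem 014) sprayed to run-off on wheat seedlings, inoculated next day with spore dust. Incubated 7 days at 20° C before disease rating, 0–100% control relative to untreated controls.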

Phytophthora infestans = conditions: for Test D disease control rating (100 = 100% disease control, 0 = no disease control): rating relative to controls; for Test D disease control rating: tomato late blight
Puccinia recondita = test: Test B: wheat leaf rust, preventive spray on wheat seedlings; conditions: for Test B disease control rating (100 = 100% disease control, 0 = no disease control): rating relative to controls; for Test B disease control rating: wheat leaf rust
Summary of the method: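 Wheat seedlings were sprayed to run-off with compound (3% acetone, 250 ppm Trem 014), then inoculated with P. recondita spores the next day. They were held 24 h saturated at 20 °C, then 6 days at 20 °C. Ratings are 0–100% disease control versus controls.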

Botrytis cinerea = test: Test E: gray mold, preventive spray on cucumber seedlings; conditions: for Test E disease control rating (100 = 100% disease control, 0 = no disease control): rating relative to controls; for Test E disease control rating: gray mold on cucumber
Summary of the method: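 Compounds in 3% acetone were suspended with 250 ppm Trem 014 surfactant and sprayed to run-off on cucumber seedlings. B. cinerea spores were inoculated next day, then 48 h saturated humidity at 20° C and 5 days at 20° C. Disease control rated 0–100% versus controls.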

[2] = rice seedlings sprayed to run-off, inoculated the following day, unmarked compounds (standard test rate)
[3] = wheat seedlings sprayed to run-off, inoculated the following day, unmarked compounds (standard test rate)
[4] = tomato seedlings sprayed to run-off, inoculated the following day, unmarked compounds (standard test rate)
[5] = cucumber seedlings sprayed to run-off, inoculated the following day, unmarked compounds (standard test rate)
[6] = 100 = 100% disease control, 0 = no control, unmarked entries (standard test concentration)
[7] = 100 = 100% disease control, 0 = no control relative to controls, unmarked entries (standard test concentration)
[8] = tested at 40 ppm, wheat seedlings

Row | SMILES | Test C disease control rating (Pyricularia oryzae; [6]) | Test A disease control rating [1, 7] | Test D disease control rating (Phytophthora infestans; [6]) | Test B disease control rating (Puccinia recondita; [6]) | Test E disease control rating (Botrytis cinerea; [6]) | further results
1 | CCC1(C(=O)NC(C)COc2ccc(Cl)c(Cl)c2Cl)C(C)C1(Cl)Cl (stereo not shown) [compound 243] | – | – | – | – | – | Test C disease control rating (100 = 100% disease control, 0 = no disease control) (Pyricularia oryzae; [2]): 74%; Test A disease control rating (100 = 100% disease control, 0 = no disease control) [1, 3]: 38%; Test D disease control rating (100 = 100% disease control, 0 = no disease control) (Phytophthora infestans; [4]): 74%; Test B disease control rating (100 = 100% disease control, 0 = no disease control) (Puccinia recondita; [3]): 0%; Test E disease control rating (100 = 100% disease control, 0 = no disease control) (Botrytis cinerea; [5]): 0%
2 | CC(C)(C)C(C#N)C(=O)NC/C=C/c1cccc(Br)c1 (racemic) [compound 272] | – | – | – | – | – | Test C disease control rating (100 = 100% disease control, 0 = no disease control) (Pyricularia oryzae; [2]): 53%; Test A disease control rating (100 = 100% disease control, 0 = no disease control) [1, 3]: 76%; Test D disease control rating (100 = 100% disease control, 0 = no disease control) (Phytophthora infestans; [4]): 63%; Test B disease control rating (100 = 100% disease control, 0 = no disease control) (Puccinia recondita; [3]): 0%; Test E disease control rating (100 = 100% disease control, 0 = no disease control) (Botrytis cinerea; [5]): 0%
3 | CC(NC(=O)C(C#N)C(C)(C)C)C(Oc1ccccc1C#N)c1ccccc1 (mixture of isomers) [compound 291] | – | – | – | – | – | Test C disease control rating (100 = 100% disease control, 0 = no disease control) (Pyricularia oryzae; [2]): 90%; Test A disease control rating (100 = 100% disease control, 0 = no disease control) [1, 3]: 0%; Test D disease control rating (100 = 100% disease control, 0 = no disease control) (Phytophthora infestans; [4]): 0%; Test B disease control rating (100 = 100% disease control, 0 = no disease control) (Puccinia recondita; [3]): 0%; Test E disease control rating (100 = 100% disease control, 0 = no disease control) (Botrytis cinerea; [5]): 0%
4 | C[C@H](COc1cc(F)ccc1Cl)NC(=O)C(C#N)C(C)(C)C (single isomer, unassigned) [191b] | 100% | 0% | 47% | 0% | 55% | –
5 | CC(COc1ccccc1F)NC(=O)C(C#N)C(C)C(C)(C)C (mixture of isomers) [compound 57] | – | – | – | – | – | Test C disease control rating (Pyricularia oryzae; tested at 40 ppm): 85%; Test A disease control rating ([1]; tested at 40 ppm): 91%; Test D disease control rating (Phytophthora infestans; tested at 40 ppm): 0%; Test B disease control rating (Puccinia recondita; tested at 40 ppm): 0%; Test E disease control rating (Botrytis cinerea; tested at 40 ppm): 0%
6 | Cc1c(Br)cc(C#N)n1CCC(C)NC(=O)C(C#N)C(C)C(C)(C)C (mixture of isomers) [compound 73] | 53% | 30% | 0% | 28% | 11% | –
7 | C[C@H](COc1ccc(Cl)cc1)NC(=O)C(C#N)C(C)(C)C (single isomer, unassigned) [7c] | 86% | 0% | 9% | 0% | 45% | –
8 | CCC1(C(=O)NC(C)COc2ccc(F)c(F)c2)C(C)C1(Cl)Cl (stereo not shown) [compound 108] | – | – | – | – | – | Test C disease control rating (Pyricularia oryzae; tested at 40 ppm): 94%; Test A disease control rating ([1]; tested at 40 ppm): 57%; Test D disease control rating (Phytophthora infestans; tested at 40 ppm): 0%; Test B disease control rating (Puccinia recondita; tested at 40 ppm): 0%; Test E disease control rating (Botrytis cinerea; tested at 40 ppm): 0%
9 | Cc1ccccc1OCC(C)NC(=O)C(C#N)C(C)(C)C (mixture of isomers) [compound 19] | 97% | 0% | 0% | 0% | 0% | –
10 | CCC1(C(=O)NC(C)COc2cccc(C(F)(F)F)c2C#N)C(C)C1(Cl)Cl (mixture of isomers) [compound 133] | 0% | 0% | 0% | 0% | 0% | –
11 | C[C@H](COc1ccc(F)cc1F)NC(=O)C(C#N)C(C)(C)C (single isomer, unassigned) [27b] | 100% | 91% | 0% | 0% | 0% | –
12 | C=CCC(C#N)C(=O)NC(C)C(Oc1cc(F)ccc1C#N)c1ccccc1 (mixture of isomers) [compound 284] | – | – | – | – | – | Test C disease control rating (100 = 100% disease control, 0 = no disease control) (Pyricularia oryzae; [2]): 99%; Test A disease control rating (100 = 100% disease control, 0 = no disease control) [1, 3]: 0%; Test D disease control rating (100 = 100% disease control, 0 = no disease control) (Phytophthora infestans; [4]): 0%; Test B disease control rating (100 = 100% disease control, 0 = no disease control) (Puccinia recondita; [3]): 0%; Test E disease control rating (100 = 100% disease control, 0 = no disease control) (Botrytis cinerea; [5]): 0%
13 | C[C@H](COc1ccc(F)cc1Cl)NC(=O)C(C#N)C(C)(C)C (single isomer, unassigned) [37b] | 99% | 77% | 96% | 68% | 0% | –
14 | CC(COc1c(F)cccc1F)NC(=O)C(C#N)C(C)(C)C (mixture of isomers) [29a] | 74% | 0% | 35% | 0% | 6% | –
15 | CCC1(C(=O)NC(C)COc2cccc(I)c2)C(C)C1(Cl)Cl (mixture of isomers) [compound 88] | – | – | – | – | – | Test C disease control rating (Pyricularia oryzae; tested at 40 ppm): 0%; Test A disease control rating ([1]; tested at 40 ppm): 52%; Test D disease control rating (Phytophthora infestans; tested at 40 ppm): 0%; Test B disease control rating (Puccinia recondita; tested at 40 ppm): 0%; Test E disease control rating (Botrytis cinerea; tested at 40 ppm): 0%
16 | CC(C)(C)C(C#N)C(=O)NC/C=C/c1ccccc1F (racemic) [compound 178] | 53% | 0% | 0% | 0% | 58% | –
17 | C[C@H](COc1cccc(Cl)c1Cl)NC(=O)C(C#N)C(C)(C)C (single isomer, unassigned) [31b] | 94% | 0% | 0% | 0% | 0% | –
18 | CCC1(C(=O)NC(C)COc2cc(F)ccc2C#N)C(C)C1(Cl)Cl (stereo not shown) [compound 245] | – | – | – | – | – | Test C disease control rating (100 = 100% disease control, 0 = no disease control) (Pyricularia oryzae; [2]): 100%; Test A disease control rating (100 = 100% disease control, 0 = no disease control) [1, 3]: 72%; Test D disease control rating (100 = 100% disease control, 0 = no disease control) (Phytophthora infestans; [4]): 0%; Test B disease control rating (100 = 100% disease control, 0 = no disease control) (Puccinia recondita; [3]): 0%; Test E disease control rating (100 = 100% disease control, 0 = no disease control) (Botrytis cinerea; [5]): 0%
19 | Cc1c(Cl)cc(C#N)n1OCC(C)NC(=O)C(C#N)C(C)(C)C (mixture of isomers) [compound 49] | 0% | 0% | 0% | 0% | 0% | –
20 | CCC1(C(=O)NC(C)COc2cc(F)cc(F)c2Cl)C(C)C1(Cl)Cl (stereo not shown) [compound 318] | – | – | – | – | – | Test C disease control rating (100 = 100% disease control, 0 = no disease control) (Pyricularia oryzae; tested at 40 ppm, rice seedlings): 53%; Test A disease control rating (100 = 100% disease control, 0 = no disease control) [1, 8]: 90%; Test D disease control rating (100 = 100% disease control, 0 = no disease control) (Phytophthora infestans; tested at 40 ppm, tomato seedlings): 0%; Test B disease control rating (100 = 100% disease control, 0 = no disease control) (Puccinia recondita; [8]): 0%; Test E disease control rating (100 = 100% disease control, 0 = no disease control) (Botrytis cinerea; tested at 40 ppm, cucumber seedlings): 0%
21 | CCC1(C(=O)NC(C)COc2cccc(C)c2)C(C)C1(Cl)Cl (mixture of isomers) [compound 96] | – | – | – | – | – | Test C disease control rating (Pyricularia oryzae; tested at 40 ppm): 0%; Test A disease control rating ([1]; tested at 40 ppm): 0%; Test D disease control rating (Phytophthora infestans; tested at 40 ppm): 90%; Test B disease control rating (Puccinia recondita; tested at 40 ppm): 0%; Test E disease control rating (Botrytis cinerea; tested at 40 ppm): 0%
22 | CCC1(C(=O)NCC=C(C)c2ccccc2)C(C)C1(Cl)Cl (stereo not shown) [compound 268] | – | – | – | – | – | Test C disease control rating (100 = 100% disease control, 0 = no disease control) (Pyricularia oryzae; [2]): 91%; Test A disease control rating (100 = 100% disease control, 0 = no disease control) [1, 3]: 38%; Test D disease control rating (100 = 100% disease control, 0 = no disease control) (Phytophthora infestans; [4]): 88%; Test B disease control rating (100 = 100% disease control, 0 = no disease control) (Puccinia recondita; [3]): 0%; Test E disease control rating (100 = 100% disease control, 0 = no disease control) (Botrytis cinerea; [5]): 0%
23 | CCC1(C(=O)NC(C)COc2ccc(Br)cc2)C(C)C1(Cl)Cl (mixture of isomers) [86b] | – | – | – | – | – | Test C disease control rating (Pyricularia oryzae; tested at 40 ppm): 0%; Test A disease control rating ([1]; tested at 40 ppm): 52%; Test D disease control rating (Phytophthora infestans; tested at 40 ppm): 28%; Test B disease control rating (Puccinia recondita; tested at 40 ppm): 0%; Test E disease control rating (Botrytis cinerea; tested at 40 ppm): 0%
24 | CC(C)(C)C(C#N)C(=O)NC/C=C/c1ccc(Cl)cc1Cl (racemic) [compound 274] | – | – | – | – | – | Test C disease control rating (100 = 100% disease control, 0 = no disease control) (Pyricularia oryzae; [2]): 74%; Test A disease control rating (100 = 100% disease control, 0 = no disease control) [1, 3]: 61%; Test D disease control rating (100 = 100% disease control, 0 = no disease control) (Phytophthora infestans; [4]): 23%; Test B disease control rating (100 = 100% disease control, 0 = no disease control) (Puccinia recondita; [3]): 28%; Test E disease control rating (100 = 100% disease control, 0 = no disease control) (Botrytis cinerea; [5]): 58%
25 | C[C@H](COc1ccc(Cl)c(F)c1)NC(=O)C(C#N)C(C)(C)C (single isomer, unassigned) [182a] | 0% | 0% | 0% | 0% | 0% | –
26 | CC(COc1ccccc1F)NC(=O)C(C#N)C(C)(C)C (mixture of isomers) [2a] | 0% | 0% | 0% | 0% | 55% | –
